According to patent US9944647B2 (Incyte Corporation, priority 2015, dated 2018):

The compounds below were run against LSD-1 enzyme (Homo sapiens (Human), UniProt O60341) (assay: LANCE LSD1/KDM1A demethylase assay (LSD1 histone demethylase biochemical assay)). Conditions: 1 nM LSD-1 enzyme, 1 hour preincubation at 25° C., Biotin-labeled Histone H3 peptide substrate.

Row | SMILES | IC50
1 | CN(C)C1CCN(c2nc(-c3ccc(C#N)cc3)c(-c3cc(F)c4c(c3)oc(=O)n4C)c3nccn23)CC1 [Example 58, 4-[5-[4-(dimethylamino)piperidin-1-yl]-8-(4-fluoro-3-methyl-2-oxo-2,3-dihydro-1,3-benzoxazol-6-yl)imidazo[1,2-c]pyrimidin-7-yl]benzonitrile] | ≤ 50 nM
2 | COc1ncc(-c2c(-c3ccc(C#N)cc3)nc(OC[C@@H]3CCCN(C)C3)n3ccnc23)cc1C [Example 69, 4-(8-(6-methoxy-5-methylpyridin-3-yl)-5-{[(3R)-1-methylpiperidin-3-yl]methoxy}imidazo[1,2-c]pyrimidin-7-yl)benzonitrile] | ≤ 50 nM
3 | Cc1ncc(-c2c(-c3ccc(C#N)cc3)nc(N3CCC(N(C)C)CC3)n3ccnc23)cc1F [Example 113, 4-[5-[4-(dimethylamino)piperidin-1-yl]-8-(5-fluoro-6-methylpyridin-3-yl)imidazo[1,2-c]pyrimidin-7-yl]benzonitrile] | ≤ 50 nM
4 | Cc1ccc(-c2c(-c3ccc(C#N)cc3)nc(OC[C@@H]3CCCN(C)C3)n3ccnc23)cc1 [Example 1, 4-(8-(4-methylphenyl)-5-{[(3R)-1-methylpiperidin-3-yl]methoxy}imidazo[1,2-c]pyrimidin-7-yl)benzonitrile] | ≤ 50 nM
5 | CN(C)C(=O)N(C)Cc1ccc(-c2c(-c3ccc(C#N)cc3)nc(N3CCC(N(C)C)CC3)n3ccnc23)cc1F [Example 97, N-(4-{7-(4-cyanophenyl)-5-[4-(dimethylamino)piperidin-1-yl]imidazo[1,2-c]pyrimidin-8-yl}-2-fluorobenzyl)-N,N′,N′-trimethylurea] | ≤ 50 nM
6 | Cc1ncc(-c2c(-c3ccc(C#N)cc3)nc(OC[C@@H]3CCCN(C)C3)n3ccnc23)cc1Cl [Example 92, 4-(8-(5-chloro-6-methylpyridin-3-yl)-5-{[(3R)-1-methylpiperidin-3-yl]methoxy}imidazo[1,2-c]pyrimidin-7-yl)benzonitrile] | ≤ 50 nM
7 | CN1CCC[C@@H](COc2nc(-c3ccc(C#N)cc3)c(-c3ccc4c(c3)CC(=O)N4C)c3nccn23)C1 [Example 6, 4-(8-(1-methyl-2-oxo-2,3-dihydro-1H-indol-5-yl)-5-{[(3R)-1-methylpiperidin-3-yl]methoxy}imidazo[1,2-c]pyrimidin-7-yl)benzonitrile] | 50 to 500 nM
8 | COC(=O)N(C)c1ccc(-c2c(-c3ccc(C#N)cc3)nc(OC[C@@H]3CCCN(C)C3)n3ccnc23)cc1F [Example 75] | 50 to 500 nM
9 | COC(=O)N(C)c1ccc(-c2c(-c3ccc(C#N)cc3)nc(N3CCC(N(C)C)CC3)n3ccnc23)cn1 [Example 67] | 50 to 500 nM
10 | CN(C)[C@@H]1CCN(c2nc(-c3ccc(C#N)cc3)c(-c3cnc4c(cnn4C)c3)c3nccn23)C1 [Example 38, 4-[5-[(3R)-3-(dimethylamino)pyrrolidin-1-yl]-8-(1-methyl-1H-pyrazolo[3,4-b]pyridin-5-yl)imidazo[1,2-c]pyrimidin-7-yl]benzonitrile] | ≤ 50 nM
